# Key:
# HL-60(TB) = details: single dose 10 μM; leukemia
# [1] = system: NCI 60 cancer cell line panel; assay: NCI 60 full panel summary; details: single dose 10 μM; mean over the NCI 60 panel
# K-562 = details: single dose 10 μM; leukemia
# MOLT-4 = details: single dose 10 μM; leukemia
# SR = details: single dose 10 μM; leukemia
# A549/ATCC = details: single dose 10 μM; non-small lung carcinoma
# EKVX = details: single dose 10 μM; non-small lung carcinoma
# NCI-H23 = details: single dose 10 μM; non-small lung carcinoma
# NCI-H522 = details: single dose 10 μM; non-small lung carcinoma
# KM12 = details: single dose 10 μM; colon cancer
# SW-620 = details: single dose 10 μM; colon cancer
# SF-268 = details: single dose 10 μM; CNS cancer
# SF-295 = details: single dose 10 μM; CNS cancer
# SF-539 = details: single dose 10 μM; CNS cancer
# SNB-19 = details: single dose 10 μM; CNS cancer
# SNB-75 = details: single dose 10 μM; CNS cancer
# MALME-3M = details: single dose 10 μM; melanoma
# M14 = details: single dose 10 μM; melanoma
# MDA-MB-435 = details: single dose 10 μM; melanoma
# UACC-257 = details: single dose 10 μM; melanoma
# UACC-62 = details: single dose 10 μM; melanoma
# OVCAR-4 = details: single dose 10 μM; ovarian carcinoma
# OVCAR-5 = details: single dose 10 μM; ovarian carcinoma
# 786–0 = details: single dose 10 μM; renal carcinoma
# A498 = details: single dose 10 μM; renal carcinoma
# CAKI-1 = details: single dose 10 μM; renal carcinoma
# SN12C = details: single dose 10 μM; renal carcinoma
# TK-10 = details: single dose 10 μM; renal carcinoma
# UO-31 = details: single dose 10 μM; renal carcinoma
# MCF7 = details: single dose 10 μM; breast carcinoma
# MDA-MB-468 = details: single dose 10 μM; breast carcinoma
# CCRF-CEM = details: single dose 10 μM; leukemia
# RPMI-8226 = details: single dose 10 μM; leukemia
# HOP-62 = details: single dose 10 μM; non-small lung carcinoma
# HOP-92 = details: single dose 10 μM; non-small lung carcinoma
# NCI-H226 = details: single dose 10 μM; non-small lung carcinoma
# HCT-15 = details: single dose 10 μM; colon cancer
# OVCAR-8 = details: single dose 10 μM; ovarian carcinoma
# SK-OV-3 = details: single dose 10 μM; ovarian carcinoma
# ACHN = details: single dose 10 μM; renal carcinoma
# PC-3 = details: single dose 10 μM; prostate carcinoma
# BT-549 = details: single dose 10 μM; breast carcinoma
# T-47D = details: single dose 10 μM; breast carcinoma
# LOX IMVI = details: single dose 10 μM; melanoma
# SK-MEL-2 = details: single dose 10 μM; melanoma
# SK-MEL-5 = details: single dose 10 μM; melanoma
# DU-145 = details: single dose 10 μM; prostate carcinoma
# HT29 = details: single dose 10 μM; colon cancer
# SK-MEL-28 = details: single dose 10 μM; melanoma
# RXF 393 = details: single dose 10 μM; renal carcinoma
compound,measurement,setting,value
3-(5-(Benzofuran-2-yl)-1-phenyl-1H-pyrazol-3-yl)-1-phenylprop-2-en-1-one [2a],GI%,HL-60(TB),7.64%
same,Mean GI%,[1],0.37%
same,GI%,K-562,5.10%
same,GI%,MOLT-4,3.22%
same,GI%,SR,17.52%
same,GI%,A549/ATCC,4.22%
same,GI%,EKVX,0.89%
same,GI%,NCI-H23,1.16%
same,GI%,NCI-H522,3.81%
same,GI%,KM12,1.62%
same,GI%,SW-620,0.70%
same,GI%,SF-268,4.98%
same,GI%,SF-295,5.84%
same,GI%,SF-539,0.23%
same,GI%,SNB-19,4.72%
same,GI%,SNB-75,19.77%
same,GI%,MALME-3M,1.12%
same,GI%,M14,0.52%
same,GI%,MDA-MB-435,0.51%
same,GI%,UACC-257,5.50%
same,GI%,UACC-62,2.28%
same,GI%,OVCAR-4,1.64%
same,GI%,OVCAR-5,0.37%
same,GI%,786–0,1.14%
same,GI%,A498,1.16%
same,GI%,CAKI-1,15.01%
same,GI%,SN12C,0.82%
same,GI%,TK-10,5.20%
same,GI%,UO-31,7.39%
same,GI%,MCF7,5.38%
same,GI%,MDA-MB-468,0.19%
"COc1ccc(C2=NNC(c3cn(-c4ccccc4)nc3-c3cc4ccccc4o3)C2)cc1 (centres unmarked) [3b, 3-(Benzofuran-2-yl)-4-(3-(4-methoxyphenyl)-4,5-dihydro-1H-pyrazol-5-yl)-1-phenyl-1H-pyrazole]",GI%,HL-60(TB),2.83%
same,Mean GI%,[1],0.8%
same,GI%,CCRF-CEM,17.25%
same,GI%,K-562,7.50%
same,GI%,MOLT-4,8.04%
same,GI%,RPMI-8226,7.55%
same,GI%,SR,7.24%
same,GI%,EKVX,0.52%
same,GI%,HOP-62,4.32%
same,GI%,HOP-92,3.27%
same,GI%,NCI-H226,1.48%
same,GI%,NCI-H522,0.82%
same,GI%,HCT-15,1.12%
same,GI%,SF-295,1.43%
same,GI%,SF-539,4.09%
same,GI%,SNB-19,2.46%
same,GI%,SNB-75,0.28%
same,GI%,MALME-3M,4.88%
same,GI%,M14,4.94%
same,GI%,UACC-62,8.16%
same,GI%,OVCAR-8,1.00%
same,GI%,SK-OV-3,6.45%
same,GI%,A498,2.47%
same,GI%,ACHN,5.79%
same,GI%,CAKI-1,17.83%
same,GI%,TK-10,3.17%
same,GI%,UO-31,26.14%
same,GI%,PC-3,12.08%
same,GI%,MCF7,2.03%
same,GI%,BT-549,4.37%
same,GI%,T-47D,2.60%
same,GI%,MDA-MB-468,7.03%
"COc1ccc(C2=NN(C(C)=O)C(c3cn(-c4ccccc4)nc3-c3cc4ccccc4o3)C2)cc1OC (centres unmarked) [4c, 1-(5-(3-(Benzofuran-2-yl)-1-phenyl-1H-pyrazol-4-yl)-3-(3,4-dimethoxyphenyl)-4,5-dihydropyrazol-1-yl)ethanone]",GI%,HL-60(TB),12.17%
same,Mean GI%,[1],2.51%
same,GI%,CCRF-CEM,9.93%
same,GI%,K-562,7.80%
same,GI%,MOLT-4,8.51%
same,GI%,RPMI-8226,11.35%
same,GI%,SR,16.71%
same,GI%,A549/ATCC,2.60%
same,GI%,EKVX,2.78%
same,GI%,HOP-62,3.35%
same,GI%,NCI-H226,1.68%
same,GI%,NCI-H23,3.23%
same,GI%,NCI-H522,1.54%
same,GI%,HCT-15,2.45%
same,GI%,KM12,1.20%
same,GI%,SW-620,4.67%
same,GI%,SF-268,4.67%
same,GI%,SF-295,4.33%
same,GI%,SF-539,1.95%
same,GI%,SNB-19,6.15%
same,GI%,SNB-75,14.70%
same,GI%,LOX IMVI,3.27%
same,GI%,MALME-3M,3.54%
same,GI%,SK-MEL-2,1.30%
same,GI%,SK-MEL-5,5.22%
same,GI%,UACC-257,6.12%
same,GI%,OVCAR-5,5.34%
same,GI%,SK-OV-3,7.21%
same,GI%,786–0,4.42%
same,GI%,A498,3.05%
same,GI%,CAKI-1,13.64%
same,GI%,SN12C,10.86%
same,GI%,UO-31,11.00%
same,GI%,PC-3,3.89%
same,GI%,DU-145,1.59%
same,GI%,MCF7,8.83%
same,GI%,BT-549,3.97%
same,GI%,T-47D,5.68%
same,GI%,MDA-MB-468,8.49%
"CC(=O)N1N=C(c2nc3ccccc3[nH]2)CC1c1cn(-c2ccccc2)nc1-c1cc2ccccc2o1 (centres unmarked) [4d, 1-(5-(3-(Benzofuran-2-yl)-1-phenyl-1H-pyrazol-4-yl)-3-(1H-benzo[d]imidazol-2-yl)-4,5-dihydropyrazol-1-yl)ethanone]",GI%,HL-60(TB),5.44%
same,Mean GI%,[1],1.26%
same,GI%,CCRF-CEM,10.91%
same,GI%,K-562,2.81%
same,GI%,MOLT-4,5.60%
same,GI%,RPMI-8226,4.74%
same,GI%,SR,18.72%
same,GI%,EKVX,5.61%
same,GI%,HOP-92,8.82%
same,GI%,NCI-H226,3.03%
same,GI%,NCI-H522,1.70%
same,GI%,HCT-15,1.38%
same,GI%,HT29,0.62%
same,GI%,SF-268,1.38%
same,GI%,SF-295,9.71%
same,GI%,SF-539,0.68%
same,GI%,SNB-19,4.75%
same,GI%,MALME-3M,5.76%
same,GI%,M14,2.74%
same,GI%,SK-MEL-28,1.16%
same,GI%,SK-MEL-5,0.87%
same,GI%,UACC-257,1.22%
same,GI%,UACC-62,2.82%
same,GI%,OVCAR-5,6.06%
same,GI%,786–0,4.06%
same,GI%,A498,5.12%
same,GI%,CAKI-1,7.51%
same,GI%,RXF 393,2.67%
same,GI%,SN12C,6.54%
same,GI%,TK-10,15.06%
same,GI%,UO-31,13.92%
same,GI%,PC-3,5.99%
same,GI%,MCF7,5.40%
same,GI%,BT-549,9.21%
same,GI%,T-47D,18.84%

# Source: paper PMC12486440, “Design, synthesis, and in silico studies of new benzofuran–pyrazole hybrids as multi-kinase inhibitors with potential antiproliferative activity” (RSC Advances, 2025)
